Experimental findings from ChEMBL document CHEMBL1128323, “Antifungal agents. 9. 3-Aryl-4-[alpha-(1H-imidazol-1-yl)arylmethyl]pyrroles: a new class of potent anti-Candida agents” (1995) are described below.

Assay type in all cases: functional
In test [1] the test system is Candida albicans. As to the kind of experiment: Inhibitory activity against the Candida albicans (40 clinical isolates), determined at pH-5.8.
In test [2] the test system is Candida. The test is described as follows: Inhibitory activity against Candida. species. (40 clinical isolates), determined at pH-5.8.
Test [3] relates to Candida albicans. As to the kind of experiment: Inhibitory activity against the Candida albicans (40 clinical isolates), determined at pH-7.2.
In test [4] the test system is Candida albicans. As to the kind of experiment: Inhibitory activity against Candida albicans (40 clinical isolates), determined at pH-7.2.
In test [5] the test system is Candida. The test is described as follows: Resistance against all Candida. species (40 clinical isolates) at 256 micro g/mL (pH=5.8). Activity is expressed as R%.
Test [6] relates to Candida. As to the kind of experiment: Inhibitory activity against Candida. species (40 clinical isolates), determined at pH-5.8.
Test [7] has as its system Candida albicans. As to the kind of experiment: 50% inhibitory activity against Candida albicans (40 clinical isolates) determined at pH-5.8.
Test [8] concerns Candida albicans. The test is described as follows: Resistance against Candida. albicans (40 clinical isolates) at 256 ug/mL (pH=7.2), activity is expressed as R%.
Test [9] has as its system Candida. As to the kind of experiment: Percent resistance against all Candida. species (40 clinical isolates) at 256 micro g/mL (pH=7.2), activity is expressed as R%.
Test [10] deals with Candida albicans. As to the kind of experiment: Percent resistance against Candida albicans (40 clinical isolates) at 256 micro g/mL (pH=5.8), activity is expressed as R%.
In test [11] the test system is Candida. The test is described as follows: 90% inhibitory activity against Candida. species (40 clinical isolates) determined at pH-7.2.
Test [12] has as its system Candida. The test is described as follows: Inhibitory activity against Candida. species. (40 clinical isolates), determined at pH-7.2.
For test [13], the system named is Oryctolagus cuniculus. As to the kind of experiment: Topical comparison with bifonazole in white male rabbits at 1% concentration of compound.
Test [14] relates to Oryctolagus cuniculus. The test is described as follows: Topical comparison with bifonazole in white male rabbits by treatment twice daily on 15 consecutive days starting 48 hr after inoculation.
The subject of test [15] is Candida albicans. As to the kind of experiment: Inhibitory activity against Candida albicans (40 clinical isolates), determined at pH-5.8.
In test [16] the test system is Candida. The test is described as follows: 50% inhibitory activity against the Candida. species (40 clinical isolates) was determined at pH-7.2.
For test [17], the system named is Candida albicans. As to the kind of experiment: 50% inhibitory activity against Candida albicans (40 clinical isolates) determined at pH-7.2. The settings on record: Candida albicans; read-out: MIC50.
The subject of test [18] is Candida albicans. As to the kind of experiment: The compound was tested for percent resistance against Candida. albicans (40 clinical isolates) at 256 micro g/mL (pH=7.2), activity is expressed as R%.
The test system of test [19] is Candida. As to the kind of experiment: The compound was tested for percent resistance against all Candida. species (40 clinical isolates) at 256 micro g/mL (pH=5.8), activity is expressed as R%.
Test [20] relates to Candida. The test is described as follows: 90% inhibitory activity against the Candida. species (40 clinical isolates) was determined at pH-7.2.

Values after ≈ are worked out from the molar mass of the structure shown. Values joined by “and” are separate entries in the source; they are usually repeats but may differ in a detail not shown here. Equal entries are not always repeated.

With `Clc1ccc(-c2c[nH]cc2C(c2ccccc2)n2ccnc2)cc1` (centres undefined), the MIC90 (commonly the lowest concentration that inhibits either 90% of growth or 90% of the strains tested, depending on the study) against Candida albicans [1] was 32 µg/mL (≈ 95.9 µM); with Candida albicans [3] it was 16 µg/mL (≈ 47.9 µM); against Candida [6], 32 µg/mL (≈ 95.9 µM); with Candida [11], 128 µg/mL (≈ 383 µM). The minimum inhibitory concentration (MIC) (in general, the smallest concentration in the dilution series that meets the test's criterion for growth inhibition) is 44.4 µg/mL (≈ 133 µM) against Candida [2], 6.4 µg/mL (≈ 19.2 µM) with Candida albicans [4], 46.5 µg/mL (≈ 139 µM) against Candida [12] and 12.8 µg/mL (≈ 38.3 µM) in the test on Candida albicans [15]. Besides, the R with Candida [5], in the test with Candida albicans [8], in the test with Candida [9] and with Candida albicans [10] was 0% in each case. Further, the MIC50 – broadly, an inhibitory concentration at the 50% level, which refers to growth in some studies and to a panel of isolates in others – was determined as 32 µg/mL (≈ 95.9 µM) in the test on Candida [6], 16 µg/mL (≈ 47.9 µM) in the test with Candida albicans [7], 32 µg/mL (≈ 95.9 µM) in the test with Candida [16] and 2 µg/mL (≈ 5.99 µM) in the test with Candida albicans [17]. In addition, in the test on Oryctolagus cuniculus [13], the Percentage of animals is 50% and 83%. The same molecule showed a No. of animals in the test with Oryctolagus cuniculus [14] of 33%.
Consider `CC(=O)N1CCN(c2ccc(OC[C@H]3CO[C@](Cn4ccnc4)(c4ccc(Cl)cc4Cl)O3)cc2)CC1` [KETOCONAZOLE], for which the MIC90 in the test on Candida albicans [1], with Candida albicans [3], with Candida [6] and in the test on Candida [20] was 32 µg/mL (≈ 60.2 µM) in each case. In addition, the MIC against Candida [2] is 16.9 µg/mL (≈ 31.8 µM); with Candida albicans [4], 8.3 µg/mL (≈ 15.6 µM); in the test with Candida [12] it was 8.1 µg/mL (≈ 15.2 µM); in the test on Candida albicans [15], 8.6 µg/mL (≈ 16.2 µM). Also, the MIC50 was 4 µg/mL (≈ 7.53 µM) against Candida [6], 0.5 µg/mL (≈ 0.941 µM) in the test with Candida albicans [7], 4 µg/mL (≈ 7.53 µM) against Candida [16] and 2 µg/mL (≈ 3.76 µM) in the test on Candida albicans [17]. Besides, the R in the test with Candida albicans [18], with Candida [9] and in the test on Candida albicans [10] was 0% throughout. Further, in the test with Candida [19], the Fungicidal came to 0%.
